pIC50: −log10 of the molar value.
Tests used:
Ba/F3 EGFR-L858R-C797S = Ba/F3 EGFR-L858R-C797S (Homo sapiens, UniProt P00533, C797S/L858R, cells depend on it); assay: Cell proliferation study (CellTiter-Glo), Ba/F3 EGFR-L858R-C797S; assay type: cell-based; settings: 72 hrs, CTG, read-out: L858R/C797S IC50
Method: (§1) • DMEM medium (Gibco, 11965118) • RPMI1640 medium (Gibco, 11875119) • Fetal bovine serum (FBS) (GBICO, Cat #10099-141) • CellTiter-Glo® luminescent cell viability assay kit (Promega, Cat #G7572) • Black transparent flat-bottom 96-well plate (Corning®, Cat #3603)
(§2) • SpectraMax multi-label microplate reader MD, 2104-0010A; • Carbon dioxide incubator, Thermo Scientific 3100 series; • Biological safety cabinet, Thermo Scientific, 1300 series model A2; • Inverted microscope, Olympus, CKX41SF; • Siemens refrigerator, KK25E76TI.
(§3) • (1) Cells in the logarithmic growth phase were harvested and counted using a […]. The cell viability was determined by the trypan blue dye exclusion method to ensure cell viability above 90%. • (2) The cell concentration was adjusted to reach a desired final density; 90 μL of cell suspension was added to a 96-well plate. • (3) The cells were incubated overnight in the 96-well plate at 37° C., 5% CO2 and with 95% humidity.
(§4) • (1) 10 μL of PBS was added to each well of the TO plate containing the cells, • (2) The CTG reagent was thawed and the cell plate was equilibrated to room temperature for 30 min. • (3) An equal volume of CTG solution was added to each well. • (4) The cells were lysed by shaking on an orbital shaker for 5 min. • (5) The cell plate was left to stand at room temperature for 20 min to stabilize the fluorescence signal. • (6) The fluorescence signal values of TO were read.
(§5) • (1) According to the compound information table, a corresponding volume of DMSO was added to the corresponding compound powder to prepare a 10 mM stock solution. • (2) A 1000-fold, 3.16-fold-diluted compound solution was prepared. • (3) The 1000× diluted compound solution was diluted 100-fold with PBS to prepare a 10-fold compound solution with a maximum concentration of 10 μM, including 9 concentrations, with 3.16-fold dilution, and 10 μL of the medicament solution was added to each well of the 96-well plate to seed the cells. Triplicate wells were set for each compound concentration, with a final concentration of DMSO being 0.1%. • (4) The cells were placed in the 96-well plate containing the medicament at 37° C., 5% CO2 and with 95% humidity, and cultured for 72 hrs before CTG analysis,
(§6) • (1) The CTG reagent was thawed and the cell plate was equilibrated to room temperature for 30 min. • (2) An equal volume of CTG solution was added to each well. • (3) The cells were lysed by shaking on an orbital shaker for 5 min. • (4) The cell plate was left to stand at room temperature for 20 min to stabilize the fluorescence signal. • (5) The fluorescence values were read.
(§7) Data were analyzed using GraphPad Prism 7.0 software and fitted data were regressed using non-linear S-curves to obtain dose-response curves from which IC50 values (in nM) were calculated.

A431 = assay: Cell proliferation study (CellTiter-Glo), A431 WT; assay type: cell-based; settings: Homo sapiens, A-431; A431 cells, 72 hrs, CTG
Method: as §1, §2, §3, §4, §5, §6, §7

Ba/F3 EGFR-Del19-C797S = Ba/F3 EGFR-Del19-C797S (Homo sapiens, UniProt P00533, C797S, cells depend on it, form not given); assay: Cell proliferation study (CellTiter-Glo), Ba/F3 EGFR-Del19-C797S; assay type: cell-based; settings: 72 hrs, CTG, read-out: Del19/C797S IC50
Method: as §1, §2, §3, §4, §5, §6, §7

Ba/F3 EGFR-Del19 = Ba/F3 EGFR-Del19 (Homo sapiens, UniProt P00533, cells depend on it, form not given); assay: Cell proliferation study (CellTiter-Glo), Ba/F3 EGFR-Del19; assay type: cell-based; settings: 72 hrs, CTG, read-out: Del19 IC50
Method: as §1, §2, §3, §4
as §5, with “Triplicate wells were set for each compound concentration, with a final concentration of DMSO being 0.1%. • (4) The cells were placed in the 96-well plate containing the medicament at 37° C., 5% CO2 and with 95% humidity, and cultured for 72 hrs before CTG analysis,” left out
as §6, §7

Ba/F3 EGFR-L858R = Ba/F3 EGFR-L858R (Homo sapiens, UniProt P00533, L858R, cells depend on it); assay: Cell proliferation study (CellTiter-Glo), Ba/F3 EGFR-L858R; assay type: cell-based; settings: 72 hrs, CTG, read-out: L858R IC50
Method: as §1, §2, §3, §4
as §5, with “Triplicate wells were set for each compound concentration, with a final concentration of DMSO being 0.1%. • (4) The cells were placed in the 96-well plate containing the medicament at 37° C., 5% CO2 and with 95% humidity, and cultured for 72 hrs before CTG analysis,” left out
as §6, §7

[1] = system: EGFR-Mutated Advanced Non-Small-Cell Lung Cancer; settings: patients, untreated EGFR-mutated advanced NSCLC; cited from earlier work

Ba/F3 EGFR-Del19, sequence (P00533 with tags, fused parts or gaps DEL746-750): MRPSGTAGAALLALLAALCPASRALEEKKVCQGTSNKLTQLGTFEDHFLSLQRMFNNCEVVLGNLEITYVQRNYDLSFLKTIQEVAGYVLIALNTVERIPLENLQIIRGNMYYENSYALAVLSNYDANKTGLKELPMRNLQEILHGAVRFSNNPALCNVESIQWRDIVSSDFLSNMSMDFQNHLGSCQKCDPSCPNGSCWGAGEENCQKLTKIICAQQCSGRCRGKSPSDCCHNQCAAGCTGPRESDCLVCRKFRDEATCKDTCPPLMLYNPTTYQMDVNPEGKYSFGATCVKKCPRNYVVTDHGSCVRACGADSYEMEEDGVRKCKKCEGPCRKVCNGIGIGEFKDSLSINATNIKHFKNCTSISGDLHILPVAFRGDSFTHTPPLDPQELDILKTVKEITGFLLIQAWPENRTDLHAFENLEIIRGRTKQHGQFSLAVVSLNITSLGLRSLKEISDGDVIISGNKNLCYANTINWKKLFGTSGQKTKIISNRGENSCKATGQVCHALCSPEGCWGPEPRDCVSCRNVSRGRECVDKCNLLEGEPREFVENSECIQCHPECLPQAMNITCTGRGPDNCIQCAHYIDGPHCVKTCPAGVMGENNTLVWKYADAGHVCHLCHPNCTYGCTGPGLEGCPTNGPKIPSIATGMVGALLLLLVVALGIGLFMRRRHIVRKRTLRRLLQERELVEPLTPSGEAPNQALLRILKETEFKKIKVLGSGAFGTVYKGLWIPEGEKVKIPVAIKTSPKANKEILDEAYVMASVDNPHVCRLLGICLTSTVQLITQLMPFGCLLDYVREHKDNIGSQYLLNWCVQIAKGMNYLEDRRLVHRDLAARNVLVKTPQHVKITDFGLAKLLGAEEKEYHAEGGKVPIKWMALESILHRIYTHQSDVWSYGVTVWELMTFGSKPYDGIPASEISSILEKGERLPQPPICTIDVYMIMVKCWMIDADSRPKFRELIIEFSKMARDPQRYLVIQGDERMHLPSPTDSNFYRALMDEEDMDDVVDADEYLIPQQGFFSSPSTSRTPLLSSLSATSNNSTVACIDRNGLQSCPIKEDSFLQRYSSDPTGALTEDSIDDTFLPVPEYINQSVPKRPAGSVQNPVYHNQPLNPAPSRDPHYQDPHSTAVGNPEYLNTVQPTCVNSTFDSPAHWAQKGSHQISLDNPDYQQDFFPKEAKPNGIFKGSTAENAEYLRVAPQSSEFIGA
Ba/F3 EGFR-L858R-C797S, sequence (P00533 whole entry C797S/L858R): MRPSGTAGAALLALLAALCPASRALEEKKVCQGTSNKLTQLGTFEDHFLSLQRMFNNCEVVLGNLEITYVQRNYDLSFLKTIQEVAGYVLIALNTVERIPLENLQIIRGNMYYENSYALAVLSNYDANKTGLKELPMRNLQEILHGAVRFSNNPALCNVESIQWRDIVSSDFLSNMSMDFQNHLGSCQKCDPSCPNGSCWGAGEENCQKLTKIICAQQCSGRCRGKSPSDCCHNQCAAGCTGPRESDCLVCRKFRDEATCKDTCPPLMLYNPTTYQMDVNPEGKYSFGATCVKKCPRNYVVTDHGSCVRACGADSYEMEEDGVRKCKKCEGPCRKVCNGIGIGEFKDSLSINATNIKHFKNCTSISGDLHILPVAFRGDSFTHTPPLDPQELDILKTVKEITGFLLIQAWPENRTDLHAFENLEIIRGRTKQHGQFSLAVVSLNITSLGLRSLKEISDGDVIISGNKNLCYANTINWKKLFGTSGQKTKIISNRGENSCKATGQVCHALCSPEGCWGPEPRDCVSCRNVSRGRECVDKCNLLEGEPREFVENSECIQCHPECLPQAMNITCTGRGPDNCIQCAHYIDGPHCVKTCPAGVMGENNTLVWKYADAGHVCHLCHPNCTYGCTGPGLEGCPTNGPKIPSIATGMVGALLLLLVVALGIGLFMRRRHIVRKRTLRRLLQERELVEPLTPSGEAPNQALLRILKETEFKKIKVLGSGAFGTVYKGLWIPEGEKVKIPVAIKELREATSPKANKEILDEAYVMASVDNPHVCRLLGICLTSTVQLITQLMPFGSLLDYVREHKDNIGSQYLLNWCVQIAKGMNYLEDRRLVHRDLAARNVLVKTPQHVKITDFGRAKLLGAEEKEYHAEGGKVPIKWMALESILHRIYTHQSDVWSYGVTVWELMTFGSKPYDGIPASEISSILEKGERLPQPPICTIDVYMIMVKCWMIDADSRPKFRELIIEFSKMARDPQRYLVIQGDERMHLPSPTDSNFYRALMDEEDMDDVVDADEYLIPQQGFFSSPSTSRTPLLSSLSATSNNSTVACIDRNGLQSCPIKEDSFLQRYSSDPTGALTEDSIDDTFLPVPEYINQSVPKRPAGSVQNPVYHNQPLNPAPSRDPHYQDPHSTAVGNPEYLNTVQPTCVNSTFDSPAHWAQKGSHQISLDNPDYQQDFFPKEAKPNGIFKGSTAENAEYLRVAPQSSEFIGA
Ba/F3 EGFR-L858R, sequence (P00533 whole entry L858R): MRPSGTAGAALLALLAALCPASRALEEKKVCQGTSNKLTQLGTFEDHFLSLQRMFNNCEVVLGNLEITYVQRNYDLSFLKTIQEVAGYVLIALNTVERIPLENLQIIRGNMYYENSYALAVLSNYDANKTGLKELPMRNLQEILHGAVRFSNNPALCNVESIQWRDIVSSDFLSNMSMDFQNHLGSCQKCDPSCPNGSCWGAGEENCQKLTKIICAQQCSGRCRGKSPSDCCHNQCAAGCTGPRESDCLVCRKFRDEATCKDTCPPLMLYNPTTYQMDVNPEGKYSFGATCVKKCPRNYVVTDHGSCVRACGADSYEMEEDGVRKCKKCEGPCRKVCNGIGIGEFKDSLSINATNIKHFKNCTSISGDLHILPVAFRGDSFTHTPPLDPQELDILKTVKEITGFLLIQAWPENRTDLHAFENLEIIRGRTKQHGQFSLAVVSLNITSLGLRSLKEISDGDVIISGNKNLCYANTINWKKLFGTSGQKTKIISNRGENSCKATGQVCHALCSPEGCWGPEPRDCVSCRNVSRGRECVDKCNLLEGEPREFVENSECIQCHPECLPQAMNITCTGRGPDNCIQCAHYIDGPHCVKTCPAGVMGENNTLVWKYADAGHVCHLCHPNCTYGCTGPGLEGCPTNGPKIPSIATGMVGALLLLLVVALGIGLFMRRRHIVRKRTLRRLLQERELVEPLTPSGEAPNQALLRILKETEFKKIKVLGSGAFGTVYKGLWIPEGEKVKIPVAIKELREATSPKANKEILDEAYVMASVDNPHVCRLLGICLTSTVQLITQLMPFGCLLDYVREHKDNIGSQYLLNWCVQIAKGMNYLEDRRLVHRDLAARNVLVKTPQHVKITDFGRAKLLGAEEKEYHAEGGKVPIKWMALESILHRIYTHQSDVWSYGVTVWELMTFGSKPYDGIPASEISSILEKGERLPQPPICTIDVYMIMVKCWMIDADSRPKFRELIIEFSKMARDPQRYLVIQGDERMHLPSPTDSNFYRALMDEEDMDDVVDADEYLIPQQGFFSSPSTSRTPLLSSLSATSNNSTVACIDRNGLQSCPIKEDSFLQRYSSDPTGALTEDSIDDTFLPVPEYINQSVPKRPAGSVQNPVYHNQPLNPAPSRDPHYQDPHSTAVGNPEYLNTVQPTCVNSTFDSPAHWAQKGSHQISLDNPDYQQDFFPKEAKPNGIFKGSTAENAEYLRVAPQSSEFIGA
Ba/F3 EGFR-Del19-C797S, sequence (P00533 with tags, fused parts or gaps DEL746-750/C797S, form open): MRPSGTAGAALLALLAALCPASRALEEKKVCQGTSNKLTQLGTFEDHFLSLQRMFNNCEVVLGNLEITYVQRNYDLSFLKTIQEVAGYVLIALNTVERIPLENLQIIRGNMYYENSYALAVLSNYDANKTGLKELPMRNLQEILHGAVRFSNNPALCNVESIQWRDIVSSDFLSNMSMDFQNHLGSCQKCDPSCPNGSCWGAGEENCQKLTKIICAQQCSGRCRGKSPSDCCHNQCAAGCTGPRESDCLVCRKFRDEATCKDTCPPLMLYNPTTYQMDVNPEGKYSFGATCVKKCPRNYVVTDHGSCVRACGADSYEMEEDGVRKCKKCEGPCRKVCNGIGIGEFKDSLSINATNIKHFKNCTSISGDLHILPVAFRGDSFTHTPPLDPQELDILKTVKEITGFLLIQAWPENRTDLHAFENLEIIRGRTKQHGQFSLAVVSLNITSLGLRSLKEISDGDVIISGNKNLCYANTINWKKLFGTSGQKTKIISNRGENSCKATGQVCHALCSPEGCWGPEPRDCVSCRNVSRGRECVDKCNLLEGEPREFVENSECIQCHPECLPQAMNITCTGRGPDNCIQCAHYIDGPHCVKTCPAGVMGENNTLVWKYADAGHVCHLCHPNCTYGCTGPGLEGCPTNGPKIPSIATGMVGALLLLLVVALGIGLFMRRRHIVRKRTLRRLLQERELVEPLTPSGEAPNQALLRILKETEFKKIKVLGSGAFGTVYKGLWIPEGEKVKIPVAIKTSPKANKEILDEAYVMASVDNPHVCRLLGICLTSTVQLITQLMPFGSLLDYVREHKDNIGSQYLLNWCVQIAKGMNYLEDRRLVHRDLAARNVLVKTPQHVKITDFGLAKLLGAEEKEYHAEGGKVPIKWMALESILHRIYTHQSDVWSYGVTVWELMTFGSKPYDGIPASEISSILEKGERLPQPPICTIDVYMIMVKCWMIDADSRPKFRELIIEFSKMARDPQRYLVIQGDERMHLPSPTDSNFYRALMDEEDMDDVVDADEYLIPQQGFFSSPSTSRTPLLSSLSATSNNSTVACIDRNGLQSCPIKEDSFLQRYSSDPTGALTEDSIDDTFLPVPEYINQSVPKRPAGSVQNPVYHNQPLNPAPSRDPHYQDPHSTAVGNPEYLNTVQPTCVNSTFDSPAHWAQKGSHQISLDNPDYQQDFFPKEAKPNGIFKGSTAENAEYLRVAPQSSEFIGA

| SMILES | GI50 (Ba/F3 EGFR-L858R-C797S) [nM] | pIC50 (A431) | GI50 (Ba/F3 EGFR-Del19-C797S) [nM] | GI50 (Ba/F3 EGFR-Del19) [nM] | GI50 (Ba/F3 EGFR-L858R) [nM] | overall survival [1] [months] | progression-free survival [1] [months] |
| --- | --- | --- | --- | --- | --- | --- | --- |
| COc1cc(N2CCN(C)CC2)c(-c2cnn(C)c2)cc1Nc1cc(Nc2ccnc(-c3ccccc3F)c2)ncn1 [Example 11, N^4-(2-(2-fluorophenyl)pyridin-4-yl)-N^6-(2-methoxy-5-(1-methyl-1H-pyrazol-4-yl)-4-(4-methylpiperazin-1-yl)phenyl)pyrimidine-4,6-diamine] | 72.6 | 6.51 | – | – | – | – | – |
| CCN1CCN(C2CCN(c3cc(OC)c(Nc4cc(Nc5ccnc(-c6ccccc6F)c5)ncn4)cc3C)CC2)CC1 [Example 16, N^4-(4-(4-(4-ethylpiperazin-1-yl)piperidin-1-yl)-2-methoxy-5-methylphenyl)-N^6-(2-(2-fluorophenyl)pyridin-4-yl)pyramidine-4,6-diamine] | 11.3 | 6.75 | 12.9 | 3.1 | 3.9 | – | – |
| COc1cc(N2CCC(N3CCN(C)CC3)CC2)c(C)cc1Nc1cc(Nc2ccnc(-c3ccccc3F)c2)ncn1 [Example 1, N^4-(2-(2-fluorophenyl)pyridin-4-yl)-N^6-(2-methoxy-5-methyl-4-(4-(4-methylpiperazin-1-yl)piperidin-1-yl)phenyl)pyrimidine-4,6-diamine] | 9.1 | 6.74 | 3.7 | 3.4 | 3 | – | – |
| COc1cc(N2CCOCC2)c(-c2cnn(C)c2)cc1Nc1cc(Nc2ccnc(-c3ccccc3F)c2)ncn1 [Example 10, N^4-(2-(2-fluorophenyl)pyridin-4-yl)-N^6-(2-methoxy-5-(1-methyl-1H-pyrazol-4-yl)-4-morpholinophenyl)pyrimidine-4,6-diamine] | 117 | – | – | – | – | – | – |
| Cc1cc(Nc2cc(Nc3ccnc(-c4ccccc4F)c3)ncn2)c(Cl)cc1N1CCC(N2CCN(C)CC2)CC1 [Example 18, N^4-(2-chloro-5-methyl-4-(4-(4-methylpiperazin-1-yl)piperidin-1-yl)phenyl)-N^6-(2-(2-fluorophenyl)pyridin-4-yl)pyrimidine-4-diamine] | 21.7 | 6.01 | 25.1 | – | – | – | – |
| COc1cc(N2CCC(N3CCN(C)CC3)CC2)c(Br)cc1Nc1cc(Nc2ccnc(-c3ccccc3F)c2)ncn1 [Example 15, N^4-(5-bromo-2-methoxy-4-(4-(4-methylpiperazin-1-yl)piperidin-1-yl)phenyl)-N-(2-(2-fluorophenyl)pyridin-4-yl)pyrimidine-4,6-diamine] | 18.3 | 6.74 | – | – | – | – | – |
| COc1cc(N2CCC(N3CCN(C)CC3)CC2)c(Cl)cc1Nc1cc(Nc2ccnc(-c3ccccc3F)c2)ncn1 [Example 14, N^4-(5-chloro-2-methoxy-4-(4-(4-methylpiperazin-1-yl)piperidin-1-yl)phenyl)-N^6-(2-(2-fluorophenyl)pyridin-4-yl)pyrimidine-4,6-diamine] | 21.4 | 6.64 | 21.9 | – | – | – | – |
| CN1CCN(C2CCN(c3cc(Cl)c(Nc4cc(Nc5ccnc(-c6ccccc6F)c5)ncn4)cc3Cl)CC2)CC1 [Example 17, N^4-(2,5-dichloro-4-(4-(4-methylpiperazin-1-yl)piperidin-1-yl)phenyl)-N^6-(2-(2-fluorophenyl)pyridin-4-yl)pyrimidine-4,6-diamine] | 87.8 | 5.97 | 85 | – | – | – | – |
| CCc1cc(Nc2cc(Nc3ccnc(-c4ccccc4F)c3)ncn2)c(OC)cc1N1CCC(N2CCN(C)CC2)CC1 [Example 6, N^4-(5-ethyl-2-methoxy-4-(4-(4-methylpiperazin-1-yl)piperidin-1-yl)phenyl)-N^6-(2-(2-fluorophenyl)pyridin-4-yl)pyrimidine-4,6-diamine] | 32.1 | 5.97 | 23.7 | – | – | – | – |
| CCOc1cc(N2CCC(N3CCN(C)CC3)CC2)c(C)cc1Nc1cc(Nc2ccnc(-c3ccccc3F)c2)ncn1 [Example 3, N^4-(2-ethoxy-5-methyl-4-(4-(4-methylpiperazin-1-yl)piperidin-1-yl)phenyl)-N^6-(2-(2-fluorophenyl)pyridin-4-yl)pyrimidine-4,6-diamine] | 23.3 | 6.66 | – | – | – | – | – |
| Cc1cc(Nc2cc(Nc3ccnc(-c4ccccc4F)c3)ncn2)c(OCC(F)(F)F)cc1N1CCC(N2CCN(C)CC2)CC1 [Example 5, N^4-(2-(2-fluorophenyl)pyridin-4-yl)-N^6-(5-methyl-4-(4-(4-methylpiperazin-1-yl)piperidin-1-yl)-2-(2,2,2-trifluoroethoxy)phenyl)pyrimidine-4,6-diamine] | 53.2 | – | – | – | – | – | – |
| Cc1cc(Nc2cc(Nc3ccnc(-c4ccccc4F)c3)ncn2)c(OC(F)F)cc1N1CCC(N2CCN(C)CC2)CC1 [Example 4, N^4-(2-(difluoromethoxy)-5-methyl-4-(4-(4-methylpiperazin-1-yl)piperidin-1-yl)phenyl)-N^6-(2-(2-fluorophenyl)pyridin-4-yl)pyrimidine-4,6-diamine] | 12.1 | 6.63 | 12.7 | 6.6 | 6.2 | – | – |
| C=CC(=O)Nc1cc(Nc2nccc(-c3cn(C)c4ccccc34)n2)c(OC)cc1N(C)CCN(C)C [osimertinib] | – | – | – | – | – | 38.6 | 18.9 |
| COc1cc(N2CCC(N3CCOCC3)CC2)c(C)cc1Nc1cc(Nc2ccnc(-c3ccccc3F)c2)ncn1 [Example 2, N^4-(2-(2-fluorophenyl)pyridin-4-yl)-N^6-(2-methoxy-5-methyl-4-(4-morpholinopiperidin-1-yl)phenyl)pyrimidine-4,6-diamine] | 10.4 | 6.26 | 17.4 | 2.8 | 2.9 | – | – |
| COc1cc(N2CCC(N3CCN(C)CC3)CC2)c(C)cc1Nc1cc(Nc2cncc(-c3ccccc3F)c2)ncn1 [Example 12, N^4-(5-(2-fluorophenyl)pyridin-3-yl)-N^6-(2-methoxy-5-methyl-4-(4-(4-methylpiperazin-1-yl)piperidin-1-yl)phenyl)pyrimidine-4,6-diamine] | 77.4 | 5.63 | – | – | – | – | – |
| COc1cc(N2CCC(N3CCN(C)CC3)CC2)c(F)cc1Nc1cc(Nc2ccnc(-c3ccccc3F)c2)ncn1 [Example 13, N^4-(5-fluoro-2-methoxy-4-(4-(4-methylpiperazin-1-yl)piperidin-1-yl)phenyl)-N^6-(2-(2-fluorophenyl)pyridin-4-yl)pyrimidine-4,6-diamine] | 22.8 | 6.74 | 16.9 | – | – | – | – |
| COc1cc(N2CCC(N3CCN(C)CC3)CC2)c(C2CC2)cc1Nc1cc(Nc2ccnc(-c3ccccc3F)c2)ncn1 [Example 8, N^4-(5-cyclopropyl-2-methoxy-4-(4-(4-methylpiperazin-1-yl)piperidin-1-yl)phenyl)-N^6-(2-(2-fluorophenyl)pyridin-4-yl)pyrimidine-4,6-diamine] | 40 | 5.78 | 34.6 | – | – | – | – |
| COc1cc(N2CCC(N3CCN(C)CC3)CC2)c(C(C)C)cc1Nc1cc(Nc2ccnc(-c3ccccc3F)c2)ncn1 [Example 7, N^4-(2-(2-fluorophenyl)pyridin-4-yl)-N^6-(5-isopropyl-2-methoxy-4-(4-(4-methylpiperazin-1-yl)piperidin-1-yl)phenyl)pyrimidine-4,6-diamine] | 69.1 | 5.60 | – | – | – | – | – |
| COc1cc(N2CCC(N3CCN(C)CC3)CC2)c(-c2cnn(C)c2)cc1Nc1cc(Nc2ccnc(-c3ccccc3F)c2)ncn1 [Example 9, N^4-(2-(2-fluorophenyl)pyridin-4-yl)-N^6-(2-methoxy-5-(1-methyl-1H-pyrazol-4-yl)-4-(4-(4-methylpiperazin-1-yl)piperidin-1-yl)phenyl)pyrimidine-4,6-diamine] | 68.6 | 5.82 | – | – | – | – | – |
